Source: ChEMBL document CHEMBL4622865, “Sulfonamide-based 4-anilinoquinoline derivatives as novel dual Aurora kinase (AURKA/B) inhibitors: Synthesis, biological evaluation and in silico insights” (Bioorg Med Chem, 2020)
pIC50: −log10 of the molar value.

Key:
HCT-116 = assay: Antitumor activity against human HCT116 cells assessed as growth inhibition at 10-'5 M incubated for 48 hrs by SRB assay relative to control; format: functional
M14 = assay: Antitumor activity against human M14 cells assessed as growth inhibition at 10-'5 M incubated for 48 hrs by SRB assay relative to control; format: functional
786-0 = assay: Antitumor activity against human 786-O cells assessed as growth inhibition at 10-'5 M incubated for 48 hrs by SRB assay relative to control; format: functional
Aurora kinase B [1] = target: T1, Aurora kinase B (Homo sapiens, UniProt Q96GD4); assay: Inhibition of human Aurora B using [H-LRRASLG] as substrate in presence of [gamma-33P]-ATP incubated for 2 hrs by hotspot kinase assay
Aurora kinase B [2] = target: T1, Aurora kinase B; assay: Inhibition of human Aurora B using [H-LRRASLG] as substrate at 20 uM in presence of [gamma-33P]-ATP incubated for 2 hrs by hotspot kinase assay relative to control
[3] = target: T2, Aurora kinase A (Homo sapiens) (UniProt O14965); assay: Inhibition of human Aurora A using [H-LRRASLG] as substrate at 20 uM in presence of [gamma-33P]-ATP incubated for 2 hrs by hotspot kinase assay relative to control
T2 sequence (whole entry): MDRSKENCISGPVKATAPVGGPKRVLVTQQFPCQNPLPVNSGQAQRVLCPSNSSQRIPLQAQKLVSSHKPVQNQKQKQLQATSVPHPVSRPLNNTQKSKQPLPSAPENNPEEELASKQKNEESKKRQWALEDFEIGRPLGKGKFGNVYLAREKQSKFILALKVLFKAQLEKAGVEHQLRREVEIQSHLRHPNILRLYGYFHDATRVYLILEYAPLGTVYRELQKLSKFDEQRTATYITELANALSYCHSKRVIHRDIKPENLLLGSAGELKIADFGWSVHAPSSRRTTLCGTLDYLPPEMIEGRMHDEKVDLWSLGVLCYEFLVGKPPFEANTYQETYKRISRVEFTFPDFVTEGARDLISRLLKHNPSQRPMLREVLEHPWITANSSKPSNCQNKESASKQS

Aurora kinase A = target: T3, Aurora kinase A (Homo sapiens, UniProt O14965); assay: Inhibition of human Aurora A using [H-LRRASLG] as substrate in presence of [gamma-33P]-ATP incubated for 2 hrs by hotspot kinase assay
T3 sequence (O14965 whole entry): T2 sequence (whole entry)

BT-549 = assay: Antitumor activity against human BT549 cells assessed as growth inhibition at 10-'5 M incubated for 48 hrs by SRB assay relative to control; format: functional
UO-31 = assay: Antitumor activity against human UO31 cells assessed as growth inhibition at 10-'5 M incubated for 48 hrs by SRB assay relative to control; format: functional
SNB-75 = assay: Antitumor activity against human SNB75 cells assessed as growth inhibition at 10-'5 M incubated for 48 hrs by SRB assay relative to control; format: functional
CAKI-1 = assay: Antitumor activity against human CAKI-1 cells assessed as growth inhibition at 10-'5 M incubated for 48 hrs by SRB assay relative to control; format: functional
K562 = assay: Antitumor activity against human K562 cells assessed as growth inhibition at 10^-5 M incubated for 48 hrs by SRB assay relative to control; format: functional; details: K562, 48 h, read-out: GI
SF-268 = assay: Antitumor activity against human SF268 cells assessed as growth inhibition at 10-'5 M incubated for 48 hrs by SRB assay relative to control; format: functional
T47D = assay: Antitumor activity against human T47D cells assessed as growth inhibition at 10-'5 M incubated for 48 hrs by SRB assay relative to control; format: functional
SN12C = assay: Antitumor activity against human SN12C cells assessed as growth inhibition at 10-'5 M incubated for 48 hrs by SRB assay relative to control; format: functional
UACC-62 = assay: Antitumor activity against human UACC62 cells assessed as growth inhibition at 10-'5 M incubated for 48 hrs by SRB assay relative to control; format: functional
RXF 393 = assay: Antitumor activity against human RXF393 cells assessed as growth inhibition at 10-'5 M incubated for 48 hrs by SRB assay relative to control; format: functional
HCT-15 = assay: Antitumor activity against human HCT15 cells assessed as growth inhibition at 10-'5 M incubated for 48 hrs by SRB assay relative to control; format: functional
MCF7 = assay: Antitumor activity against human MCF7 cells assessed as growth inhibition at 10-'5 M incubated for 48 hrs by SRB assay relative to control; format: functional
SR = assay: Antitumor activity against human SR cells assessed as growth inhibition at 10-'5 M incubated for 48 hrs by SRB assay relative to control; format: functional
SNB-19 = assay: Antitumor activity against human SNB19 cells assessed as growth inhibition at 10-'5 M incubated for 48 hrs by SRB assay relative to control; format: functional
A498 = assay: Antitumor activity against human A498 cells assessed as growth inhibition at 10-'5 M incubated for 48 hrs by SRB assay relative to control; format: functional
ACHN = assay: Antitumor activity against human ACHN cells assessed as growth inhibition at 10-'5 M incubated for 48 hrs by SRB assay relative to control; format: functional
NCI/ADR-RES = assay: Antitumor activity against human NCI-ADR-RES cells assessed as growth inhibition at 10-'5 M incubated for 48 hrs by SRB assay relative to control; format: functional
HOP-92 = assay: Antitumor activity against human HOP92 cells assessed as growth inhibition at 10-'5 M incubated for 48 hrs by SRB assay relative to control; format: functional
SK-MEL-5 = assay: Antitumor activity against human SK-MEL-5 cells assessed as growth inhibition at 10-'5 M incubated for 48 hrs by SRB assay relative to control; format: functional
HT-29 = assay: Antitumor activity against human HT-29 cells assessed as growth inhibition at 10-'5 M incubated for 48 hrs by SRB assay relative to control; format: functional
NCI-H522 = assay: Antitumor activity against human NCI-H522 cells assessed as growth inhibition at 10-'5 M incubated for 48 hrs by SRB assay relative to control; format: functional
PC-3 = assay: Antitumor activity against human PC3 cells assessed as growth inhibition at 10-'5 M incubated for 48 hrs by SRB assay relative to control; format: functional
SK-OV-3 = assay: Antitumor activity against human SKOV3 cells assessed as growth inhibition at 10-'5 M incubated for 48 hrs by SRB assay relative to control; format: functional
LOX IMVI = assay: Antitumor activity against human LOXIMVI cells assessed as growth inhibition at 10-'5 M incubated for 48 hrs by SRB assay relative to control; format: functional
KM12 = assay: Antitumor activity against human KM12 cells assessed as growth inhibition at 10-'5 M incubated for 48 hrs by SRB assay relative to control; format: functional
[4] = Antitumor activity against human […] cells assessed as growth inhibition at 10-'5 M incubated for 48 hrs by SRB assay relative to control; format: functional

T1 sequence (Q96GD4 whole entry): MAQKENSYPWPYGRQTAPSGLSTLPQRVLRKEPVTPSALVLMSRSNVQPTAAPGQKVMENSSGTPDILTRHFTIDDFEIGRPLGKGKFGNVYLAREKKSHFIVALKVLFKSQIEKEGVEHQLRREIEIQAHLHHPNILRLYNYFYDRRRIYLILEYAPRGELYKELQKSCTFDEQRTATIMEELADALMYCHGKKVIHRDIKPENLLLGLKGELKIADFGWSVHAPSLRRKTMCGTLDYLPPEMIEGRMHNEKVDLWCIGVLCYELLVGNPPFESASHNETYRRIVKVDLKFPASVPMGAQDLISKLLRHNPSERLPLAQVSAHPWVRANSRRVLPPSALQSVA

pIC50 (Aurora kinase B [1]) | inhibition (Aurora kinase B [2]) [%] | inhibition [3] [%] | pIC50 (Aurora kinase A) | Structure (SMILES) | growth inhibition (GI) (HCT-116) [%] | growth inhibition (GI) (786-0) | growth inhibition (GI) (UO-31) | growth inhibition (GI) (CAKI-1) | growth inhibition (GI) (HCT-15) | growth inhibition (GI) (A498) | growth inhibition (GI) (NCI/ADR-RES) | growth inhibition (GI) (NCI-H522) | other results
4.88 | 56.6 | 71.9 | 4.87 | CCOC(=O)c1cnc2ccccc2c1Nc1cccc(NS(C)(=O)=O)c1 | >50 | >=20% |  |  |  |  |  |  | growth inhibition (GI) (M14): >50%
5.08 | 57.7 | 14.9 |  | CCOC(=O)c1cnc2ccc(C)cc2c1Nc1cccc(S(N)(=O)=O)c1 | >50 |  |  |  |  |  |  |  | growth inhibition (GI) (BT-549): >=20%
4.90 | 60.9 | 64.3 | 4.78 | CCOC(=O)c1cnc2ccccc2c1Nc1cccc(S(N)(=O)=O)c1 |  |  | >=20% | >=20% |  |  |  |  | growth inhibition (GI) (SNB-75): >=20%
7.05 | 90.8 | 58.6 | 6.03 | CCOC(=O)c1cnc2cc(Cl)cc(Cl)c2c1Nc1cccc(S(=O)(=O)NC)c1 |  | >=25% | 50% | 41% | 34% | 54% | >=25% | 35% | inhibition of growth at 10 µM (K562): 35%; growth inhibition (GI) (SF-268): >=25%; growth inhibition (GI) (T47D): >=25%; growth inhibition (GI) (SN12C): >=25%; growth inhibition (GI) (UACC-62): 34%; growth inhibition (GI) (RXF 393): 33%; growth inhibition (GI) (MCF7): 30%; growth inhibition (GI) (SR): >=25%; growth inhibition (GI) (SNB-19): >=25%; growth inhibition (GI) (ACHN): 39%; growth inhibition (GI) (HOP-92): 53%; growth inhibition (GI) (SK-MEL-5): 31%; growth inhibition (GI) (HT-29): >=25%; growth inhibition (GI) (PC-3): 30%; growth inhibition (GI) (SK-OV-3): 31%; growth inhibition (GI) (LOX IMVI): >=25%; growth inhibition (GI) (KM12): 64%; growth inhibition (GI) [4]: 64%
 | 18.7 | 6.43 |  | CCOC(=O)c1cnc2ccc(C)cc2c1Nc1cccc(S(=O)(=O)NC)c1 |  |  |  |  |  |  |  |  | 
 | 21.4 | 10.7 |  | CCOC(=O)c1cnc2ccc(Br)cc2c1Nc1cccc(S(=O)(=O)NC)c1 |  |  | >=20% |  | >=20% | >=20% | >=20% | >=20% | 
